From US9260504B2, “N- and C-terminal substituted antagonistic analogs of GH-RH” (University of Miami, priority 2008, dated 2016)

How the values were obtained:
Format in all cases: in vivo
[1] = test system: H-460 human non-small cell lung cancer; assay: H-460 human non-SCLC xenografts in nude mice, Experiment 3; conditions: 28 days
Protocol: Male nude mice were implanted s.c. with 3 mm^3 pieces of H-460 human non-SCLC tumor tissue on both flanks. When tumors had grown to a mean volume of approximately 90 mm^3, the mice were randomly assigned into 8 experimental groups with 8 to 10 animals in each group and received single daily injections for 28 days as follows: 1. Control (vehicle solution); 2. JMR-132 (10 μg/day s.c.); 3. Peptide 11123 (5 μg/day s.c.); 4. Peptide 11125 (5 μg/day s.c.); 5. Peptide 11307 (5 μg/day s.c.); 6. Peptide 11317 (5 μg/day s.c.); 7. Peptide 11473 (5 μg/day s.c.); 8. Peptide 11485 (5 μg/day s.c.). Tumor volumes were measured once a week. The experiment was ended on day 28 by sacrificing the mice under Isoflurane anesthesia. Resulting tumors were cleaned, weighed, and snap-frozen until further analyses. Statistical analyses of the measurement results were done by two-tailed t-test, p<0.05 being considered significant.

[2] = test system: HT human diffuse mixed B cell lymphoma cell line; assay: HT human diffuse mixed B cell lymphoma xenografts in nude mice; conditions: 5 μg/day s.c.
Protocol: The aim of this study was to find out the tumor inhibitor effect of the latest GHRH antagonists (Peptide 11602, Peptide 11604, Peptide 11606, and Peptide 11610) at the dose of 5 μg/day on HT human diffuse mixed B cell lymphoma cell line. Female nude mice were xenografted subcutaneously with approximately 3 mm^3 pieces of HT malignant tumor tissue. When tumors reached the mean volume of approximately 120 mm^3, the animals were randomly assigned into different groups. Tumor volumes and body weight were measured once a week. At the end of the experiment mice were anesthetized and sacrificed. Tumors were carefully excised, weighed and were stored at −80° C. until further investigation. Organs and tumor samples were preserved in 10% formaldehyde.

[3] = test system: Human ovarian cancer SKOV3 cells; assay: SKOV3 ovarian cancer xenografts in nude mice; conditions: 5 μg/day s.c.
Source text: Human ovarian cancer SKOV3 cells growing exponentially were implanted info five female nude mice by subcutaneous (s.c.) injection of 10^7 cells in both flanks. Tumors That resulted after approximately 4 weeks in donor animals were then aseptically dissected and mechanically minced. Three mm^3 pieces of tumor tissue were transplanted subcutaneously into experimental animals with a trocar needle. When tumors reached an appropriate size (approximately 50 mm^3), mice were randomly divided into […]. The first was the control group, the second group was treated with daily s.c. injections of 5 μg P-11313, the third group was treated with daily s.c. injections of 5 μg P-11604, the fourth group was treated with daily s.c. injections of 5 μg P-11610. Tumor volume (length×width×height×0.5236) was measured every week and mean tumor volumes of each group were compared by Student's t-test. The study lasted 49 days. One week after end of treatment, mice were killed under anesthesia, tumors were snap frozen and stored at −70° C.

[4] = test system: H460 human non-small cell lung cancer cell line; assay: H460 human non-small cell lung cancer xenografts in nude mice (Example XV); conditions: 5 μg/day s.c.
Source text: The aim of this study was to find out the tumor inhibitor effect of the latest GHRH antagonists (Peptide 11423, Peptide 11602, Peptide 11604, Peptide 11606) on H460 human non-small cell lung cancer cell line. Female nude mice were xenografted subcutaneously with approximately 3 mm^3 pieces of H460 human non-small cell lung cancer malignant tumor tissue. When tumors reached the mean volume of approximately 90 mm^3, the animals was randomly assigned into different groups. Tumor volumes and body weight were measured once a week. At the end of the experiment mice were anesthetized and sacrificed. Tumors were carefully excised, weighed and were stored at −80° C. until further investigation. Organs and tumor samples were preserved in 10% formaldehyde.

[5] = test system: PC-3 human hormone-independent prostate cancer; assay: PC3 androgen-independent prostate cancer xenografts in nude mice (Example XIV); conditions: 2 μg/day
Protocol: Male nude mice were implanted s.c. with 3 mm^3 pieces of PC-3 human hormone-independent prostate cancer tissue on both flanks. When tumors reached a volume of approximately 50 mm^3, the mice were divided into 8 experimental groups with 8 to 10 animals in each group and received single daily injections for 28 days as follows: 1. Control (vehicle solution); 2. P-11513 2 μg/day; 3. P-11602 2 μg/day; 4. P-11602 1 μg/day; 5. P-11604 2 μg/day; 6. P-11606 2 μg/day; 7. P-11610 2 μg/day; 8. P-11610 1 μg/day.
Tumor volumes were measured once a week. The experiment was ended on day 28 by sacrificing the mice under Isoflurane anesthesia. Resulting tumors were cleaned, weighed, and snap-frozen until further analyses. Statistical analyses of the measurement results were done by two-tailed t-test, p<0.05 being considered significant.

Question: Which results are given for “[(Ac-Amc)-Tyr^1, D-Arg^2, Cpa^6, Ala^8, Har^9, Tyr(Me)^10, His^11, Orn^12, Abu^15, His^20, Nle^27, D-Arg^28, Har^29-Amc^30]hGH-RH(1-29)NH2 [Peptide 11307]”?
Answer: Tumor growth inhibition after 4 weeks (%) ([1]; 5 μg/day s.c.): 30.98%; Inhibition of H-460 lung tumor growth compared with reference peptide JMR-132 ([1]; 5 μg/day vs JMR-132 10 μg/day): more potently inhibited the growth of H-460 lung tumors than the reference peptide JMR-132

Question: Which “TUMOR GROWTH (%)” value ([2]; day 1 (baseline)) does the source give for “[(PhAc-Ada)^0-Tyr^1, D-Arg^2, (Phe(F)5)^6, Ala^8, Har^9, Tyr(Me)^10, His^11, Orn^12, Abu^15, His^20, Orn^21, Nle^27, D-Arg^28, Har^29, Agm^30]hGH-RH(1-29) [Peptide 11604]” here?
Answer: 100%

Question: What about the “Tumor inhibition (%)” value ([2]; day 1 (baseline)) of the same substance?
Answer: 0%

Question: What about the “Tumor volume (mm^3)” value ([2]; day 1 (baseline)) of the same substance?
Answer: 125.04 mm^3

Question: What about the “TUMOR GROWTH (%)” value ([2]; day 7) of the same substance?
Answer: 129.89%

Question: What about the “Tumor inhibition (%)” value ([2]; day 7) of the same substance?
Answer: 57.53%

Question: What about the “Tumor volume (mm^3)” value ([2]; day 7) of the same substance?
Answer: 165.21 mm^3

Question: What about the “TUMOR GROWTH (%)” value ([2]; day 14) of the same substance?
Answer: 175.7%

Question: And the “Tumor inhibition (%)” value ([2]; day 14)?
Answer: 63.61%

Question: What about the “Tumor volume (mm^3)” value ([2]; day 14) of the same substance?
Answer: 231.44 mm^3

Question: What about the “TUMOR GROWTH (%)” value ([2]; day 21) of the same substance?
Answer: 271.36%

Question: And the “Tumor inhibition (%)” value ([2]; day 21)?
Answer: 65.27%

Question: And the “Tumor volume (mm^3)” value ([2]; day 21)?
Answer: 563.86 mm^3

Question: What about the “TUMOR GROWTH (%)” value ([2]; day 28) of the same substance?
Answer: 338.41%

Question: What about the “Tumor inhibition (%)” value ([2]; day 28) of the same substance?
Answer: 62.25%

Question: And the “Tumor volume (mm^3)” value ([2]; day 28)?
Answer: 818.2 mm^3

Question: What about the “TU growth (%)” value ([3]; day 0 (baseline)) of the same substance?
Answer: 100%

Question: And the “TU growth (%)” value ([3]; day 7)?
Answer: 144.55%

Question: And the “TU inhibition (%)” value ([3]; day 7)?
Answer: 32.57%

Question: What about the “TU growth (%)” value ([3]; day 14) of the same substance?
Answer: 174.5%

Question: And the “TU inhibition (%)” value ([3]; day 14)?
Answer: 37.73%

Question: What about the “TU growth (%)” value ([3]; day 21) of the same substance?
Answer: 179.5%

Question: And the “TU inhibition (%)” value ([3]; day 21)?
Answer: 66.97%

Question: What about the “TU growth (%)” value ([3]; day 28) of the same substance?
Answer: 167.5%

Question: And the “TU inhibition (%)” value ([3]; day 28)?
Answer: 80.12%

Question: What about the “TU growth (%)” value ([3]; day 35) of the same substance?
Answer: 182.88%

Question: What about the “TU inhibition (%)” value ([3]; day 35) of the same substance?
Answer: 79.52%

Question: And the “TU growth (%)” value ([3]; day 42)?
Answer: 397.95%

Question: What about the “TU inhibition (%)” value ([3]; day 42) of the same substance?
Answer: 67.80%

Question: And the “TU growth (%)” value ([3]; day 49)?
Answer: 309.96%

Question: What about the “TU inhibition (%)” value ([3]; day 49) of the same substance?
Answer: 75.63%

Question: What about the “TUMOR GROWTH (%)” value ([4]; day 1 (baseline)) of the same substance?
Answer: 100.00%

Question: And the “TUMOR GROWTH (%)” value ([4]; day 7)?
Answer: 341.87%

Question: What about the “Tumor inhibition (%)” value ([4]; day 7) of the same substance?
Answer: 35.48%

Question: What about the “TUMOR GROWTH (%)” value ([4]; day 14) of the same substance?
Answer: 609.38%

Question: What about the “Tumor inhibition (%)” value ([4]; day 14) of the same substance?
Answer: 55.93%

Question: What about the “TUMOR GROWTH (%)” value ([4]; day 21) of the same substance?
Answer: 1006.40%

Question: What about the “Tumor inhibition (%)” value ([4]; day 21) of the same substance?
Answer: 59.24%

Question: And the “TUMOR GROWTH (%)” value ([4]; day 28)?
Answer: 1595.34%

Question: What about the “Tumor inhibition (%)” value ([4]; day 28) of the same substance?
Answer: 61.08%

Question: And the “TUMOR GROWTH (%)” value ([5]; day 0 (baseline))?
Answer: 100%

Question: What about the “TUMOR GROWTH (%)” value ([5]; day 7) of the same substance?
Answer: 159.84%

Question: And the “Tumor inhibition (%)” value ([5]; day 7)?
Answer: 51.75%

Question: And the “TUMOR GROWTH (%)” value ([5]; day 14)?
Answer: 199.57%

Question: And the “Tumor inhibition (%)” value ([5]; day 14)?
Answer: 66.23%

Question: What about the “TUMOR GROWTH (%)” value ([5]; day 21) of the same substance?
Answer: 316.88%

Question: What about the “Tumor inhibition (%)” value ([5]; day 21) of the same substance?
Answer: 73.37%

Question: What about the “TUMOR GROWTH (%)” value ([5]; day 28) of the same substance?
Answer: 383.97%

Question: What about the “Tumor inhibition (%)” value ([5]; day 28) of the same substance?
Answer: 79.33%
